In US10357473B2, “Method for treating a prolifitive disorder with a cis-diamine platinum complex” (KING FAHD UNIVERSITY OF PETROLEUM AND MINERALS, priority 2017, dated 2019):

Tests used:
Type in all cases: cell-based
[1] = tested on: MCF7 (human breast carcinoma) cell line; assay: In vitro cytotoxic activity (MTT assay) against MCF7 cells; conditions: for antiproliferative potency against MCF7 in words, compared with cisplatin / carboplatin: MCF7 cells, comparison of IC50 values; for IC50: MTT assay, cultures incubated 24 h with compound, ± standard deviation, three independent experiments
Protocol: (§1) The cis-[Pt(NH3)2(thione)2].2NO3 complexes were evaluated for their in vitro cytotoxic activity against A549 (human lung cancer), MCF-7 (human breast cancer) and HTC15 (human colon cancer) cell lines. The cells were seeded at 4×10^3 cells/well in 100 μL DMEM containing 10% FBS in 96-wells tissue culture plate and incubated for 72 h at 37° C., 5% CO2 in the air and 90% relative humidity in the CO2 incubator. […] The medium of wells was discarded and 100 μL DMEM containing MTT (3-(4,5-Dimethylthiazol-2-yl)-2,5-diphenyltetrazolium Bromide) (5 mg/mL) was added to the wells and incubated in a CO2 incubator at 37° C. in dark for 4 h. After incubation, purple colored formazan (artificial chromogenic dye, a product of the reduction of water insoluble tetrazolium salts e.g., MMT by dehydrogenases and reductases) in the cells is produced and appeared as dark crystals in the bottom of the wells. The resultant crystals were solubilized by adding 100 μL of DMSO in each well. The solution was thoroughly mixed to dissolve the formazan crystals, producing a purple solution. The absorbance of the 96-wells plate was taken at 570 nm with Labsystems Multiskan EX-Enzyme-linked immunosorbent assay (EX-ELISA) reader against a reagent blank. The IC50 values were calculated from three independent experiments by generating an equation of logarithmic trendline of percentage cell viability against concentration compounds in Microsoft excel.
(§2) The IC50 values were obtained from curves between the complexes concentration and viability percentage of the cells, and are listed, in Table 3.
(§3) The experimental results are presented as the micro-mole concentration of 50%/0 cell growth inhibition (IC50) of each drug. The MTT assay was performed in three independent experiments, each in triplicate. The cancer cell lines used are A549 (human lung cancer), MCF-7 (human breast cancer) and HTC15 (human colon cancer) cell lines.

[2] = tested on: A549 (human lung carcinoma) cell line; assay: In vitro cytotoxic activity (MTT assay) against A549 cells; conditions: for IC50: MTT assay, cultures incubated 24 h with compound, ± standard deviation, three independent experiments; for in vitro cytotoxicity against A549 compared in words with cisplatin / carboplatin: A549 cells, comparison of IC50 values
Protocol: as §1
The MTT assay was performed in three independent experiments, each in triplicate. The cancer cell lines used are A549 (human lung cancer), MCF-7 (human breast cancer) and HTC15 (human colon cancer) cell lines.

[3] = tested on: HCT15 (human colon adenocarcinoma) cell line; assay: In vitro cytotoxic activity (MTT assay) against HCT15 cells; conditions: for IC50: MTT assay, cultures incubated 24 h with compound, ± standard deviation, three independent experiments; for cytotoxicity against HCT15 compared in words with cisplatin / carboplatin: HCT15 cells, comparison of IC50 values
Protocol: as §1, §2, §3

SMILES	antiproliferative potency against MCF7 in words, compared with cisplatin / carboplatin [1]	IC50 [1]	IC50 [2]	IC50 [3]	in vitro cytotoxicity against A549 compared in words with cisplatin / carboplatin [2]	cytotoxicity against HCT15 compared in words with cisplatin / carboplatin [3]
N.N.O=C([O-])C1(C(=O)[O-])CCC1.[Pt+2] [Carboplatin, reference compound]	poor antiproliferative potency	63 ± 2 µM	70 ± 2 µM	53 ± 2 µM	–	–
N.N.[Cl][Pt][Cl] [Cisplatin, cis-diaminedichloridoplatinum(II), reference compound]	–	23 ± 3 µM	42 ± 2 µM	32 ± 2 µM	–	–
O=[N+]([O-])[O-].O=[N+]([O-])[O-].[NH3+][Pt-2]([NH3+])([S+]=C1NCCN1)[S+]=C1NCCN1 [Compound 1, cis-[Pt(NH3)2(Imt)2].2NO3]	–	101 ± 2 µM	53 µM	82 ± 1 µM	comparable to cisplatin	–
CN1CCNC1=[S+][Pt-2]([NH3+])([NH3+])[S+]=C1NCCN1C.O=[N+]([O-])[O-].O=[N+]([O-])[O-] [Compound 2, cis-[Pt(NH3)2(MeImt)2].2NO3]	–	82 ± 1 µM	85 ± 1 µM	75 ± 2 µM	–	–
CN1CCN(C)C1=[S+][Pt-2]([NH3+])([NH3+])[S+]=C1N(C)CCN1C.O=[N+]([O-])[O-].O=[N+]([O-])[O-] [Compound 3, cis-[Pt(NH3)2(Me2Imt)2].2NO3]	greater cytotoxic effect than carboplatin	58 µM	68 ± 1 µM	54 ± 1 µM	–	nearly same value as carboplatin
CCN1CCN(CC)C1=[S+][Pt-2]([NH3+])([NH3+])[S+]=C1N(CC)CCN1CC.O=[N+]([O-])[O-].O=[N+]([O-])[O-] [Compound 4, cis-[Pt(NH3)2(Et2Imt)2].2NO3]	–	97 ± 3 µM	108 ± 2 µM	97 ± 3 µM	–	–
CCCN1CCNC1=[S+][Pt-2]([NH3+])([NH3+])[S+]=C1NCCN1CCC.O=[N+]([O-])[O-].O=[N+]([O-])[O-] [Compound 5, cis-[Pt(NH3)2(PrImt)2].2NO3]	–	74 ± 2 µM	72 ± 2 µM	51 ± 2 µM	nearly same as that of carboplatin	lower IC50 values
CC(C)N1CCNC1=[S+][Pt-2]([NH3+])([NH3+])[S+]=C1NCCN1C(C)C.O=[N+]([O-])[O-].O=[N+]([O-])[O-] [Compound 6, cis-[Pt(NH3)2(iPrImt)2].2NO3]	–	81 ± 3 µM	55 µM	48 ± 1 µM	comparable to cisplatin	lower IC50 values
CC(C)N1CCN(C(C)C)C1=[S+][Pt-2]([NH3+])([NH3+])[S+]=C1N(C(C)C)CCN1C(C)C.O=[N+]([O-])[O-].O=[N+]([O-])[O-] [Compound 7, cis-[Pt(NH3)2(iPr2Imt)2].2NO3]	–	78 ± 2 µM	50 µM	52 ± 1 µM	comparable to cisplatin	lower IC50 values
O=[N+]([O-])[O-].O=[N+]([O-])[O-].[NH3+][Pt-2]([NH3+])([S+]=C1NCCCN1)[S+]=C1NCCCN1 [Compound 8, cis-[Pt(NH3)2(Diaz)2].2NO3]	–	90 ± 2 µM	75 ± 2 µM	76 ± 1 µM	nearly same as that of carboplatin	–
CCN1CCCNC1=[S+][Pt-2]([NH3+])([NH3+])[S+]=C1NCCCN1CC.O=[N+]([O-])[O-].O=[N+]([O-])[O-] [Compound 9, cis-[Pt(NH3)2(EtDiaz)2].2NO3]	–	103 ± 3 µM	73 ± 1 µM	90 ± 2 µM	nearly same as that of carboplatin	–
O=[N+]([O-])[O-].O=[N+]([O-])[O-].[NH3+][Pt-2]([NH3+])([S+]=C1NCCCCN1)[S+]=C1NCCCCN1 [Compound 10, cis-[Pt(NH3)2(Diap)2].2NO3]	–	71 ± 1 µM	52 µM	41 ± 1 µM	comparable to cisplatin	lower IC50 values
